Patent US20100273808A1 (Millennium Pharmaceticals, Inc., priority 2008, published 2010)
Read-outs that look alike come from different tables or passages of the source.

Assay: Equilibrium aqueous solubility under pH controlled conditions
Format: physicochemical

In the case of `COc1cc2c(N3CCN(C(=O)Nc4ccc(OC(C)C)cc4)CC3)ncnc2cc1OCCCN1CCCCC1.C[C@H](O)C(=O)O` [Form 4, 4-[6-methoxy-7-(3-piperidin-1-yl-propoxy)quinazolin-4-yl]piperazine-1-carboxylic acid(4-isopropoxyphenyl)-amide (L)-lactate Form 4], the solubility (in water, physiologically relevant pH's) is reported as “greater than 325 mg/mL”, the solubility (pH 3.65, aqueous buffer, thermodynamic from solid, equilibrium aqueous, pH 3.65, read-out: Solubility) is reported as 359 mg/mL and the solubility (pH 5.85, aqueous buffer, thermodynamic from solid, equilibrium aqueous, pH 5.85, read-out: Solubility) is reported as 412 mg/mL. It also gave a solubility (pH 6.03, aqueous buffer, thermodynamic from solid, equilibrium aqueous, pH 6.03, read-out: Solubility) of 327 mg/mL.

`COc1cc2c(N3CCN(C(=O)Nc4ccc(OC(C)C)cc4)CC3)ncnc2cc1OCCCN1CCCCC1.C[C@H](O)C(=O)O` [Form 1, 4-[6-methoxy-7-(3-piperidin-1-yl-propoxy)quinazolin-4-yl]piperazine-1-carboxylic acid(4-isopropoxyphenyl)-amide (L)-lactate Form 1] gave a solubility (aqueous buffer, thermodynamic from solid, in water, physiologically relevant pH's, read-out: solubility) greater than 450 mg/mL, a solubility (pH 3.51, aqueous buffer, thermodynamic from solid, equilibrium aqueous, pH 3.51, read-out: Solubility) of 496 mg/mL and a solubility (pH 3.97, aqueous buffer, thermodynamic from solid, equilibrium aqueous, pH 3.97, read-out: Solubility) of 465 mg/mL. For the same molecule, the solubility (pH 4.23, aqueous buffer, thermodynamic from solid, equilibrium aqueous, pH 4.23, read-out: Solubility) was 511 mg/mL and the solubility (pH 5.96, aqueous buffer, thermodynamic from solid, equilibrium aqueous, pH 5.96, read-out: Solubility) was 458 mg/mL.

Molecule `COc1cc2c(N3CCN(C(=O)Nc4ccc(OC(C)C)cc4)CC3)ncnc2cc1OCCCN1CCCCC1` [compound of formula (II), 4-[6-methoxy-7-(3-piperidin-1-yl-propoxy)quinazolin-4-yl]piperazine-1-carboxylic acid(4-isopropoxyphenyl)-amide] has a solubility (in water, pH 6.95, read-out: solubility) of roughly 1.24 mg/mL.
